Reference: ChEMBL document CHEMBL1201862, “PubChem BioAssay data set” (2004)
The source made the active and inactive calls.

Tests used:
[1] = target: T1, Sentrin-specific protease 8 (Homo sapiens, UniProt Q96LD8); assay type: functional
T1 sequence (Q96LD8 whole entry): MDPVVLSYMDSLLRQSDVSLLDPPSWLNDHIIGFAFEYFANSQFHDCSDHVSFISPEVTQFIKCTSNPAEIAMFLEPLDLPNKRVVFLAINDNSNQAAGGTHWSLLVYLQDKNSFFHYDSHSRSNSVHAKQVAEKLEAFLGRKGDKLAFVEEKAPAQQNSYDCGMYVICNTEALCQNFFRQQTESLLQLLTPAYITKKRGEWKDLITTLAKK

[2] = target: T1, Sentrin-specific protease 8; assay type: functional; remark: listed apart in the source
[3] = miR-122 activators in hepatoma reporter cells, dose response, cell-based, Huh7 psiCHECK-miR122, Renilla luciferase, cherry-picked (AID 651956); assay type: functional;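 further: huh7 hepatoma cells stably carrying a psiCHECK-2 miR-122 sensor plasmid; renilla luciferase signal reporting endogenous miR-122 activity after 48 h compound exposure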
[4] = inhibitors of intracellular T. cruzi replication, confirmation, NIH3T3 host cells, beta-gal luminescence (AID 2044); assay type: functional, cell-based;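 further: intracellular parasites grown in NIH/3T3 mouse fibroblasts as host cells; luminescent beta-galactosidase reporter signal from transgenic T. cruzi replicating inside host cells; inhibitors lower the luminescence signal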
[5] = cytotoxicity toward NIH3T3 fibroblasts, dose response, counter-screen, cell-based, ATP luminescence, mouse fibroblasts (AID 2010); assay type: functional;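 further: cells exposed to compound for about 90 hours before reading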
[6] = THP-1 cell cytotoxicity, dose response, cytotoxicity control for non-replicating M. tuberculosis project (AID 489025); assay type: functional
[7] = HepG2 cell cytotoxicity, dose response, cytotoxicity control for non-replicating M. tuberculosis project (AID 489018); assay type: functional; details: Mycobacterium tuberculosis
[8] = Vero E6 cell cytotoxicity, dose response, cytotoxicity control for non-replicating M. tuberculosis project, secondary assay (AID 492998); assay type: functional, VeroE6; details: Vero C1008
[9] = target: T2, Short transient receptor potential channel 4 (Mus musculus, UniProt Q9QUQ5); experiment: mouse TRPC4 channel activators, dose response, cell-based, HEK293 TRPC4/mu-opioid, Fluo-4 calcium (AID 434937); assay type: functional
T2 sequence (Q9QUQ5 whole entry): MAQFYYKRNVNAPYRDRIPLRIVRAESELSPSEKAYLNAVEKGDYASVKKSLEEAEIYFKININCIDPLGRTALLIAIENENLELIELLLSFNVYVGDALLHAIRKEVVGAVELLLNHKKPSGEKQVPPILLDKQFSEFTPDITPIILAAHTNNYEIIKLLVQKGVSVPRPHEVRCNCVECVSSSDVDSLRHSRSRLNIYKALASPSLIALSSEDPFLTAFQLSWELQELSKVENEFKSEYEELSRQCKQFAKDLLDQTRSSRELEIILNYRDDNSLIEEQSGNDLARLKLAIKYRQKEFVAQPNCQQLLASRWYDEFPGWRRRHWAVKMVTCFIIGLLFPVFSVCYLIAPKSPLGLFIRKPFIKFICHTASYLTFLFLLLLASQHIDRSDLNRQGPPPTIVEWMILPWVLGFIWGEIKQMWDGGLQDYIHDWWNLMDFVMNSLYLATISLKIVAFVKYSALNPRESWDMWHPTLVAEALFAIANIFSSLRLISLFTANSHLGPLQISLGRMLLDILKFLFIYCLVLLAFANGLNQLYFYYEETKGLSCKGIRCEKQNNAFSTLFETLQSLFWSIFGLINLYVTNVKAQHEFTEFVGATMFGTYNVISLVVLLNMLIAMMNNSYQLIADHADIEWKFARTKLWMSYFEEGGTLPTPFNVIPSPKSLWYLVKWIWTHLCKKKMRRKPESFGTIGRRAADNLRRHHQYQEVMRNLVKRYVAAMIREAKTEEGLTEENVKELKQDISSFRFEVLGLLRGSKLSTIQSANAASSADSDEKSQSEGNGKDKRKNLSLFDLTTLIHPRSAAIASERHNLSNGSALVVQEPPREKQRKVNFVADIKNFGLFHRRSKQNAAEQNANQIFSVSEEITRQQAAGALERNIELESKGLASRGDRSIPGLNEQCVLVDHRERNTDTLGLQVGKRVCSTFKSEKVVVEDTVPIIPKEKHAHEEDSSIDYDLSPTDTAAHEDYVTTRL

cells = assay type: functional
[10] = MDA-MB-231 cell growth inhibition, dose response, cytotoxicity control for RAD54 inhibitor project, CellTiter-Glo luminescence, cherry-pick (AID 651692); assay type: functional, cell-based
[11] = HeLa cell cytotoxicity, dose response, cytotoxicity control for MgcRacGAP inhibitor project (AID 624300); assay type: functional
[12] = target: T3, DNA repair and recombination protein RAD54-like (Homo sapiens, UniProt Q92698); experiment: inhibitors of human RAD54 branch migration, confirmation, biochemical, fluorescence, cherry-picked samples, dose series (AID 651657); assay type: functional
T3 sequence (Q92698 whole entry): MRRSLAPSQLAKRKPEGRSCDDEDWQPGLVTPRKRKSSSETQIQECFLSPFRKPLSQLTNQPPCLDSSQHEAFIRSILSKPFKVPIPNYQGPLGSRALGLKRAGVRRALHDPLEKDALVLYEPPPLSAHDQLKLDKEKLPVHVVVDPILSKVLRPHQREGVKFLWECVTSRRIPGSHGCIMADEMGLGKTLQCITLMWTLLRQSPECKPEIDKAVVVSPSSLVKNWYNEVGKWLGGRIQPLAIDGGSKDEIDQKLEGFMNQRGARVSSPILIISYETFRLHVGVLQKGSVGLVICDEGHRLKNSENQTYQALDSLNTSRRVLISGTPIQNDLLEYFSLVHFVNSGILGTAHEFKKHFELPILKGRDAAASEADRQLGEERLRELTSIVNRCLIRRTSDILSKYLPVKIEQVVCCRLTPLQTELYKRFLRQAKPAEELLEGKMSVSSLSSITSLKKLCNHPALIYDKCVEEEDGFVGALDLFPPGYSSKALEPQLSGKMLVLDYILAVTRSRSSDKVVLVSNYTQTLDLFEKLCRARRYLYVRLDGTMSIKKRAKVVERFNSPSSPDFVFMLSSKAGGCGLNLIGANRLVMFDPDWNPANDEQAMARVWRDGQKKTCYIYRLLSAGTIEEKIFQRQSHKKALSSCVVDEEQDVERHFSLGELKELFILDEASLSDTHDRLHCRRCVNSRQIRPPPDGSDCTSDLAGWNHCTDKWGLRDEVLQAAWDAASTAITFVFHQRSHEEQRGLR

[13] = target: T4, Rac GTPase-activating protein 1 (Homo sapiens, UniProt Q9H0H5); experiment: MgcRacGAP GTPase-activating activity inhibitors, confirmation, biochemical, ADP Hunter fluorescence, primary and confirmatory (AID 624330); assay type: functional
T4 sequence (Q9H0H5 whole entry): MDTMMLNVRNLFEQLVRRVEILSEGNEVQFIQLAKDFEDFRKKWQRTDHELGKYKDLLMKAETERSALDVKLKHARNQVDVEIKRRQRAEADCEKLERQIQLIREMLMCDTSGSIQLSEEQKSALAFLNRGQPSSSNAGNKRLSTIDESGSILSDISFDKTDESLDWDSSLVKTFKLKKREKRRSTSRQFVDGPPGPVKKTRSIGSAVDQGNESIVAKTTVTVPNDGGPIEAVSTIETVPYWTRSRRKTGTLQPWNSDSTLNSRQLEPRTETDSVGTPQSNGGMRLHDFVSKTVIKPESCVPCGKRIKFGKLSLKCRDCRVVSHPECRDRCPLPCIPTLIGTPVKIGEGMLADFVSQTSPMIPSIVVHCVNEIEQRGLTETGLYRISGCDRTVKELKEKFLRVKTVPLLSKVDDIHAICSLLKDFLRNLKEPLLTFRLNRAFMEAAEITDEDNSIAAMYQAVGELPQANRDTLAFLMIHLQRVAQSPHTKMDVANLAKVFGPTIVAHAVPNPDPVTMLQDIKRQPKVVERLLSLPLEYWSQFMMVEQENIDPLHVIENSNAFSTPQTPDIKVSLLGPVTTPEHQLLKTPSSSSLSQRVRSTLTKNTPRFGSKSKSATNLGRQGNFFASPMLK

[14] = target: T5, DNA repair protein RAD52 homolog (Homo sapiens, UniProt P43351); assay type: functional, biochemical
T5 sequence (P43351 whole entry): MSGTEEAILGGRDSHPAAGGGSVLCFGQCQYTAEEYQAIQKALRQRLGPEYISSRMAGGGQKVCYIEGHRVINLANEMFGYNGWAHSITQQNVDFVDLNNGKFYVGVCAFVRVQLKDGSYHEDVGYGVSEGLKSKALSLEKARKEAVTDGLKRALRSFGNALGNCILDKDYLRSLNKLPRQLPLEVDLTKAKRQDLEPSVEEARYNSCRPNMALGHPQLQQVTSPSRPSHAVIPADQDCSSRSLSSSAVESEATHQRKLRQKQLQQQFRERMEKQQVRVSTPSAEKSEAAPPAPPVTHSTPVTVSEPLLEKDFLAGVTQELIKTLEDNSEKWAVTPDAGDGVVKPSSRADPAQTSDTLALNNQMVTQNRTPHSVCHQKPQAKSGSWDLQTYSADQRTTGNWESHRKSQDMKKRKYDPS

COC(=O)CCCC1=CC2=CC(=O)C(C)(OC(=O)c3cccs3)C(=O)C2=CN1C1CC1 (stereo unspecified)
active: IC50 [1] 17.3 µM | IC50 [2] 7.17 µM

COC(=O)C[C@H]1CC[C@H]2[C@@H](COc3ccc(NC(=O)Nc4c(C)noc4C)cc3C(=O)N2C)O1
active: AC50 [3] 40.4 µM

CCCCN(CC)CCNC(=O)c1cc2c(-c3ccc(Cl)cc3)nn(C)c2s1
active: EC50 [4] 0.809 µM | EC50 [5] 8.44 µM | CC50 [6] 13.7 µM | CC50 [7] 5.62 µM | CC50 [8] 12.9 µM | EC50 [9] 0.211 µM | IC50 (cells) 9.15 µM | AC50 [10] 23.7 µM | CC50 [11] 55.5 µM | AC50 [12] 21.7 µM | IC50 [13] 229 µM | AC50 [14] 6.76 µM

C[C@H](CO)N1C[C@H](C)[C@@H](CN(C)Cc2ccc(-c3ccccc3)cc2)Oc2ncc(C#CCN(C)C)cc2C1=O
active: AC50 [3] 20.3 µM
